Results on one compound are retold here after patent publication US20060154346A1, “Microorganism producing 5'xanthylic acid” (priority 2002, published 2006).

Assay [1] concerns Corynebacterium ammoniagenes KCCM 10340. The assay can be described thus: Growth of the strain in medium with added oligomycin (resistance test). In kind it is cell-based. Set-up: key: +: growth; −: no growth. To be noted: 30° C. for 5 days. An excerpt:
(§1) The invention relates to Corynebacterium ammoniagenes CJXOL 0201 (KCCM-10447) which is a mutant strain of Corynebacterium ammoniagenes KCCM 10340, producing 5′-xanthylic acid. The CJXOL 0201 is obtained by treating Corynebacterium ammoniagenes KCCM 10340 with UV radiation and mutation derivatives such as N-methy-N′-nitro-n-nitrosoguanidine(NTG) according to ordinary procedure, and selecting a mutant strain among these which can grow in the culture medium (glucose 20 g/L, potassium phosphate monobasic 1 g/L, potassium phosphate dibasic 1 g/L, urea 2 g/L, ammonium sulfate 3 g/L, magnesium sulfate 1 g/L, calcium chloride 100 mg/L, ferrous sulfate 20 mg/L, manganese sulfate 10 mg/L, zinc sulfate 10 mg/L, biotin 30 μg/L, thiamine hydrochloride 0.1 mg/L, copper sulfate 0.8 mg/L, adenine 20 mg/L, guanine 20 mg/L, pH 7.2) which different concentration levels of oligomycin (1,2,5,10,20,50 mg/L) is added into. […] 21, 2002 with accession Number KCCM 10447.
(§2) According to the Table 1, the microorganism of the invention can grow in the medium which 10 mg/L oligomycin was added into. The medium was: fermented at 30° C. for 5 days.

For assay [2], the system named is Corynebacterium ammoniagenes CJXOL 0201. The assay is described as above. The class given is cell-based. On the set-up: key to growth of strain: +: growth; −: no growth.
Source text: as §1, §2

With `CC[C@H]1/C=C/C=C/C[C@@H](C)[C@H](O)[C@@](C)(O)C(=O)[C@@H](C)[C@H](O)[C@@H](C)C(=O)[C@@H](C)[C@H](O)[C@@H](C)/C=C/C(=O)O[C@@H]2[C@H](C)[C@H](CC1)O[C@]1(CC[C@H](C)[C@H](C[C@@H](C)O)O1)[C@H]2C` [Oligomycin, oligomycin], the growth of strain entry in assay [1] (oligomycin 10 mg/L) is on record as “+”; in assay [1] (oligomycin 20 mg/L), “−”; in assay [1] (oligomycin 30 mg/L), “−”; in assay [1] (oligomycin 40 mg/L) it was “−”; in assay [1] (oligomycin 50 mg/L) it was “−”; in assay [2] (oligomycin 30 mg/L, 30° C. for 5 days), “+”. Also, the growth of strain entry is “−” in assay [2] (oligomycin 40 mg/L, 30° C. for 5 days) and “−” in assay [2] (oligomycin 50 mg/L, 30° C. for 5 days). Further, the “oligomycin concentration up to which resistance (growth) was shown; no growth above” value in assay [2] (0˜50 mg/L oligomycin added into selection medium) is on record as “up to 20 mg/L”. In assay [2] (oligomycin 10 mg/L, 30° C. for 5 days), the “growth in medium with oligomycin” value was “can grow”.
